Assay results published in PubChem BioAssay AID1963971 (Molecular Pharmacology Branch, DTP, NCI, 2024).
pIC50: −log10 of the molar value.

System: 953936-095-R-J2-PDC spheroids with HUVEC/MSC, viability
Test: Anticancer human tumor 953936-095-R-J2-PDC patient-derived cervical squamous cell carcinoma cell line growth inhibition [PI3K]
Conditions: for pIC50: curve of first compound; for viability, T/C: stronger effect = lower value
Procedure, shortened: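 Complex 3D spheroids (cancer cells + endothelial HUVEC + mesenchymal stem cells); drug pairs of targeted agent x inavolisib/alpelisib/duvelisib/copanlisib; half-log series from ~Cmax, max 10 microM if Cmax unknown; endpoint viability.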

[1] = second compound 0.0316 µM, first compound 0.0316 µM
[2] = second compound 0.0316 µM, first compound 0.1 µM
[3] = second compound 0.1 µM, first compound 0.0316 µM
[4] = second compound 0.1 µM, first compound 0.1 µM
[5] = second compound 0.316 µM, first compound 0.0316 µM
[6] = second compound 0.316 µM, first compound 0.1 µM
[7] = second compound 1 µM, first compound 0.0316 µM
[8] = second compound 1 µM, first compound 0.1 µM
[9] = second compound 3.16 µM, first compound 0.0316 µM
[10] = second compound 3.16 µM, first compound 0.1 µM
[11] = second compound 10 µM, first compound 0.0316 µM
[12] = second compound 10 µM, first compound 0.1 µM
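Also: spheroids exposed to compounds for seven days before read-out.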

How did the pIC50 (second compound 0.0316 µM) turn out when `CC(C)n1nc(-c2ccc3oc(N)nc3c2)c2c(N)ncnc21` + CC(Nc1ncnc2nc[nH]c12)c1cc2cccc(Cl)c2c(=O)n1-c1ccccc1 was run?
Its pIC50 is 7.47.

And the pIC50 (second compound 0.1 µM)?
Its pIC50 is 7.54.

What about the pIC50 (second compound 0.316 µM) of the same molecule?
Its pIC50 is 7.71.

What about the pIC50 (second compound 1 µM) of the same molecule?
The pIC50 was 7.51.

What about the pIC50 (second compound 3.16 µM) of the same molecule?
The pIC50 was 7.66.

And the pIC50 (second compound 10 µM)?
Its pIC50 is 7.95.

And the viability, T/C (second compound 0.0316 µM, first compound 0.000316 µM)?
Its viability, T/C is 88.3%.

What about the viability, T/C (second compound 0.0316 µM, first compound 0.001 µM) of the same molecule?
Its viability, T/C is 98.9%.

And the viability, T/C (second compound 0.0316 µM, first compound 0.00316 µM)?
The viability, T/C was 93.9%.

What about the viability, T/C (second compound 0.0316 µM, first compound 0.01 µM) of the same molecule?
Its viability, T/C is 73.9%.

What about the viability, T/C [1] of the same molecule?
Its viability, T/C is 53.7%.

And the viability, T/C [2]?
Its viability, T/C is 18.2%.

What about the viability, T/C (second compound 0.1 µM, first compound 0.000316 µM) of the same molecule?
The viability, T/C was 101%.

What about the viability, T/C (second compound 0.1 µM, first compound 0.001 µM) of the same molecule?
The viability, T/C was 95%.

What about the viability, T/C (second compound 0.1 µM, first compound 0.00316 µM) of the same molecule?
The viability, T/C was 85.1%.

What about the viability, T/C (second compound 0.1 µM, first compound 0.01 µM) of the same molecule?
Its viability, T/C is 77.1%.

And the viability, T/C [3]?
The viability, T/C was 46.3%.

And the viability, T/C [4]?
The viability, T/C was 16.5%.

What about the viability, T/C (second compound 0.316 µM, first compound 0.000316 µM) of the same molecule?
The viability, T/C was 112%.

What about the viability, T/C (second compound 0.316 µM, first compound 0.001 µM) of the same molecule?
Its viability, T/C is 87.6%.

And the viability, T/C (second compound 0.316 µM, first compound 0.00316 µM)?
The viability, T/C was 77.9%.

What about the viability, T/C (second compound 0.316 µM, first compound 0.01 µM) of the same molecule?
Its viability, T/C is 66.9%.

What about the viability, T/C [5] of the same molecule?
The viability, T/C was 46.8%.

And the viability, T/C [6]?
The viability, T/C was 17.2%.

And the viability, T/C (second compound 1 µM, first compound 0.000316 µM)?
Its viability, T/C is 95.1%.

What about the viability, T/C (second compound 1 µM, first compound 0.001 µM) of the same molecule?
The viability, T/C was 84.2%.

What about the viability, T/C (second compound 1 µM, first compound 0.00316 µM) of the same molecule?
Its viability, T/C is 77.7%.

What about the viability, T/C (second compound 1 µM, first compound 0.01 µM) of the same molecule?
The viability, T/C was 65%.

And the viability, T/C [7]?
Its viability, T/C is 56%.

And the viability, T/C [8]?
Its viability, T/C is 15.9%.

What about the viability, T/C (second compound 3.16 µM, first compound 0.000316 µM) of the same molecule?
Its viability, T/C is 73.3%.

And the viability, T/C (second compound 3.16 µM, first compound 0.001 µM)?
The viability, T/C was 70.5%.

What about the viability, T/C (second compound 3.16 µM, first compound 0.00316 µM) of the same molecule?
The viability, T/C was 68.8%.

And the viability, T/C (second compound 3.16 µM, first compound 0.01 µM)?
The viability, T/C was 68.8%.

And the viability, T/C [9]?
The viability, T/C was 41.1%.

What about the viability, T/C [10] of the same molecule?
Its viability, T/C is 14.6%.

What about the viability, T/C (second compound 10 µM, first compound 0.000316 µM) of the same molecule?
Its viability, T/C is 57.7%.

What about the viability, T/C (second compound 10 µM, first compound 0.001 µM) of the same molecule?
Its viability, T/C is 57.3%.

What about the viability, T/C (second compound 10 µM, first compound 0.00316 µM) of the same molecule?
The viability, T/C was 53.3%.

And the viability, T/C (second compound 10 µM, first compound 0.01 µM)?
The viability, T/C was 52.8%.

And the viability, T/C [11]?
Its viability, T/C is 29.9%.

And the viability, T/C [12]?
Its viability, T/C is 12.8%.

`CCCS(=O)(=O)Nc1ccc(F)c(C(=O)c2c[nH]c3ncc(-c4ccc(Cl)cc4)cc23)c1F` + CC(Nc1ncnc2nc[nH]c12)c1cc2cccc(Cl)c2c(=O)n1-c1ccccc1 was tested. Which pIC50 (second compound 0.0316 µM) did it give?
Its pIC50 is 5.24.

What about the pIC50 (second compound 0.1 µM) of the same molecule?
The pIC50 was 5.24.

And the pIC50 (second compound 0.316 µM)?
The pIC50 was 5.25.

What about the pIC50 (second compound 1 µM) of the same molecule?
The pIC50 was 5.28.

What about the pIC50 (second compound 3.16 µM) of the same molecule?
Its pIC50 is 5.30.

And the pIC50 (second compound 10 µM)?
The pIC50 was 5.39.

And the viability, T/C [1]?
The viability, T/C was 91.3%.

What about the viability, T/C [2] of the same molecule?
Its viability, T/C is 98.6%.

And the viability, T/C (second compound 0.0316 µM, first compound 0.316 µM)?
Its viability, T/C is 108%.

And the viability, T/C (second compound 0.0316 µM, first compound 1 µM)?
The viability, T/C was 113%.

What about the viability, T/C (second compound 0.0316 µM, first compound 3.16 µM) of the same molecule?
The viability, T/C was 103%.

And the viability, T/C (second compound 0.0316 µM, first compound 10 µM)?
Its viability, T/C is 0.75%.

And the viability, T/C [3]?
Its viability, T/C is 102%.

And the viability, T/C [4]?
The viability, T/C was 101%.

And the viability, T/C (second compound 0.1 µM, first compound 0.316 µM)?
Its viability, T/C is 99.2%.

What about the viability, T/C (second compound 0.1 µM, first compound 1 µM) of the same molecule?
The viability, T/C was 104%.

And the viability, T/C (second compound 0.1 µM, first compound 3.16 µM)?
The viability, T/C was 104%.

What about the viability, T/C (second compound 0.1 µM, first compound 10 µM) of the same molecule?
Its viability, T/C is 1.22%.

What about the viability, T/C [5] of the same molecule?
The viability, T/C was 101%.

And the viability, T/C [6]?
The viability, T/C was 91.6%.

What about the viability, T/C (second compound 0.316 µM, first compound 0.316 µM) of the same molecule?
The viability, T/C was 97%.

And the viability, T/C (second compound 0.316 µM, first compound 1 µM)?
The viability, T/C was 102%.

What about the viability, T/C (second compound 0.316 µM, first compound 3.16 µM) of the same molecule?
The viability, T/C was 97.2%.

What about the viability, T/C (second compound 0.316 µM, first compound 10 µM) of the same molecule?
Its viability, T/C is 0.93%.

And the viability, T/C [7]?
The viability, T/C was 98.9%.

What about the viability, T/C [8] of the same molecule?
Its viability, T/C is 85.1%.

What about the viability, T/C (second compound 1 µM, first compound 0.316 µM) of the same molecule?
The viability, T/C was 96.5%.

What about the viability, T/C (second compound 1 µM, first compound 1 µM) of the same molecule?
The viability, T/C was 98.2%.

And the viability, T/C (second compound 1 µM, first compound 3.16 µM)?
The viability, T/C was 89.3%.

And the viability, T/C (second compound 1 µM, first compound 10 µM)?
Its viability, T/C is 1.11%.

And the viability, T/C [9]?
Its viability, T/C is 76.1%.

And the viability, T/C [10]?
The viability, T/C was 74.6%.

What about the viability, T/C (second compound 3.16 µM, first compound 0.316 µM) of the same molecule?
The viability, T/C was 78%.

And the viability, T/C (second compound 3.16 µM, first compound 1 µM)?
The viability, T/C was 101%.

And the viability, T/C (second compound 3.16 µM, first compound 3.16 µM)?
The viability, T/C was 86.9%.

And the viability, T/C (second compound 3.16 µM, first compound 10 µM)?
Its viability, T/C is 1.48%.

And the viability, T/C [11]?
Its viability, T/C is 59.5%.

What about the viability, T/C [12] of the same molecule?
Its viability, T/C is 63.5%.

What about the viability, T/C (second compound 10 µM, first compound 0.316 µM) of the same molecule?
Its viability, T/C is 63%.

What about the viability, T/C (second compound 10 µM, first compound 1 µM) of the same molecule?
The viability, T/C was 70.1%.

And the viability, T/C (second compound 10 µM, first compound 3.16 µM)?
The viability, T/C was 63.6%.

What about the viability, T/C (second compound 10 µM, first compound 10 µM) of the same molecule?
Its viability, T/C is 1.27%.
